The series in a line: Tebuconazole concentration in the sprayed composition, determined by chromatograph. In kind it is physicochemical. The procedure:
After the storage period of two weeks, each of the concentrates A to E was diluted with water. 10 liters of spraying compositions were prepared using hard water (CIPAC standard water D, 342 ppm) in 3 different concentrations: 0.5, 1, and 2 times the recommended spraying concentration for each concentrate.
Each diluted composition was sprayed using a personal spraying machine and using one spray nozzle equipped with 200 mesh screen. A sample of each composition was collected leaving the spraying machine after spraying.
Further, every sample of the spray compositon was analyzed in a chromatograph to determine the concentration of tebuconazole in the composition as it would be reaching the locus to be treated. […]

Take `CC(C)(C)C(O)(CCc1ccc(Cl)cc1)Cn1cncn1` (stereo not drawn) [Tebuconazole]: the Tebuconazole concentration is listed as 2064 ppm (0.5% dilution, 0 hr); 2039 ppm (0.5% dilution, 1 hr); 2009 ppm (0.5% dilution, 2 hr); 1969 ppm (0.5% dilution, 3 hr); 1924 ppm (0.5% dilution, 4 hr); 4150 ppm (1.0% dilution, 0 hr). In addition, the Tebuconazole concentration by setting is: (1.0% dilution, 1 hr) 4123 ppm; (1.0% dilution, 2 hr) 4091 ppm; (1.0% dilution, 3 hr) 4052 ppm; (1.0% dilution, 4 hr) 4007 ppm; (2.0% dilution, 0 hr) 8300 ppm; (2.0% dilution, 1 hr) 8272 ppm. Also, the Tebuconazole concentration is, setting by setting: (2.0% dilution, 2 hr) 8237 ppm; (2.0% dilution, 3 hr) 8197 ppm; (2.0% dilution, 4 hr) 8152 ppm.

(Values after patent publication US9426983B2, “Agrochemical composition and method for preparing the same” (priority 2007, dated 2016).)
